Source: US11739074B2, “Ras inhibitors” (Revolution Medicines, Inc., priority 2019, dated 2023)
pEC50, pIC50: −log10 of the molar value. Like-named read-outs stand apart in the source and are kept apart here.

Legend:
NRAS G12C = target: T1, NRAS G12C (Homo sapiens, UniProt P01111+P62937, G12C); assay: Ras-Raf disruption/FRET/MOA assay, NRAS G12C; format: biochemical
T1 construct: His6
In short: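 Disruption of Ras:RAF binding was read as a drop in TR-FRET ratio versus DMSO controls. The buffer was 25 mM HEPES pH 7.3, 0.002% Tween20, 0.1% BSA, 100 mM NaCl and 5 mM MgCl2. Compounds were tested as a 10-point 3-fold dilution series from 30 μM. Detection used 10 nM anti-His Eu-W1024 and 50 nM anti-GST allophycocyanin.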

NCI-H358 (K-Ras G12C) = assay: CellTiter-Glo cell viability assay, H358; format: cell-based; conditions: Homo sapiens, NCI-H358, 120 h
In short: (§1)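 Luminescent viability readout on day 5, plates first brought to room temperature for ~30 min; compounds added straight to plated RAS-mutant cells. Values expressed as percent of mean DMSO signal, curves fitted with a four-parameter logistic model.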

KRAS WT = KRAS WT (Homo sapiens, UniProt P01116+P62937); assay: Ras-Raf disruption/FRET/MOA assay, KRAS WT; format: biochemical
In short: (§2)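 In this biochemical mechanism-of-action format, 12.5 nM GMPPNP-bound KRAS and 50 nM BRAF^RBD are mixed with 25 μM Cyclophilin A and dilution series of compound. After a 3 h incubation, tag-directed FRET antibodies report remaining KRAS:RAF association.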

KRAS G13D = KRAS G13D (Homo sapiens, UniProt P01116+P62937, G13D); assay: Ras-Raf disruption/FRET/MOA assay, KRAS G13D; format: biochemical
In short: as §2

KRAS G12V = KRAS G12V (Homo sapiens, UniProt P01116+P62937, G12V); assay: Ras-Raf disruption/FRET/MOA assay, KRAS G12V; format: biochemical
In short: as §2

KRAS G12S = KRAS G12S (Homo sapiens, UniProt P01116+P62937, G12S); assay: Ras-Raf disruption/FRET/MOA assay, KRAS G12S; format: biochemical
In short: as §2

KRAS G12D = KRAS G12D (Homo sapiens, UniProt P01116+P62937, G12D); assay: Ras-Raf disruption/FRET/MOA assay, KRAS G12D; format: biochemical
In short: as §2

KRAS G12C = KRAS G12C (Homo sapiens, UniProt P01116+P62937, G12C); assay: Ras-Raf disruption/FRET/MOA assay, KRAS G12C; format: biochemical
In short: as §2

AsPC-1 (K-Ras G12D) [1] = assay: CellTiter-Glo cell viability assay, AsPC-1; format: cell-based; conditions: Homo sapiens, ASPC1, 120 h
In short: as §1

KRAS G13C = KRAS G13C (Homo sapiens, UniProt P01116+P62937, G13C); assay: Ras-Raf disruption/FRET/MOA assay, KRAS G13C; format: biochemical
In short: as §2

AsPC-1 (K-Ras G12D) [2] = assay: Potency assay: pERK in AsPC-1 cells; format: cell-based; conditions: Homo sapiens
[3] = NRAS G12C FRET data IC50, NRAS G12C
[4] = read-out: H358 Cell Viability IC50, NCI-H358, K-Ras G12C, 5-day treatment
[5] = read-out: AsPC-1 Cell Viability IC50, AsPC-1, K-Ras G12D, 5-day treatment
[6] = ASPC1, read-out: pERK EC50 (AsPC-1 KRAS G12D)
[7] = NRAS G12C, read-out: NRAS G12C FRET data IC50
[8] = read-out: H358 Cell Viability IC50
[9] = disruption of BRAF RBD binding, with Cyclophilin A, read-out: KRAS WT FRET IC50
[10] = disruption of BRAF RBD binding, with Cyclophilin A, read-out: KRAS G13D FRET IC50
[11] = disruption of BRAF RBD binding, with Cyclophilin A, read-out: KRAS G12V FRET IC50
[12] = disruption of BRAF RBD binding, with Cyclophilin A, read-out: KRAS G12S FRET IC50
[13] = disruption of BRAF RBD binding, with Cyclophilin A, read-out: KRAS G12D FRET IC50
[14] = disruption of BRAF RBD binding, with Cyclophilin A, read-out: KRAS G12C FRET IC50
[15] = read-out: AsPC-1 Cell Viability IC50
[16] = disruption of BRAF RBD binding, with Cyclophilin A, read-out: KRAS G13C FRET IC50

Chain of KRAS G13D (P01116 1-169 isoform P01116-2 G13D limits assumed): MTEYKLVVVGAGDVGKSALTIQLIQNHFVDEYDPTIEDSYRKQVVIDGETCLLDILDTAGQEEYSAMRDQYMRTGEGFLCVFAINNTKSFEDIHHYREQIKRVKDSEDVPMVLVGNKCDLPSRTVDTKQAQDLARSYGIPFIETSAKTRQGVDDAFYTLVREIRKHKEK
Chain of KRAS G13D (P62937 whole entry): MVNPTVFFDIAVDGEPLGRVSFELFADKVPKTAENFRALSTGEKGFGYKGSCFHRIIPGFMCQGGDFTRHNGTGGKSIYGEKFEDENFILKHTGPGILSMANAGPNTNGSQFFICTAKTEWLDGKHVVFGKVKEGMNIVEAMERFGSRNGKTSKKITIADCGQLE
Chain of KRAS G12V (P01116 1-169 isoform P01116-2 G12V limits assumed): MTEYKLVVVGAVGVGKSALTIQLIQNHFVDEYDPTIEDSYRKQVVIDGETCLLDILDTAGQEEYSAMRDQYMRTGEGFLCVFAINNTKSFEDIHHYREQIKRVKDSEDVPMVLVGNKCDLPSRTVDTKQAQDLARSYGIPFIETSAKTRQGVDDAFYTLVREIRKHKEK
Chain of KRAS G12V (P62937 whole entry): as the sequence (P62937 whole entry) above
Chain of KRAS G12D (P01116 1-169 isoform P01116-2 G12D limits assumed): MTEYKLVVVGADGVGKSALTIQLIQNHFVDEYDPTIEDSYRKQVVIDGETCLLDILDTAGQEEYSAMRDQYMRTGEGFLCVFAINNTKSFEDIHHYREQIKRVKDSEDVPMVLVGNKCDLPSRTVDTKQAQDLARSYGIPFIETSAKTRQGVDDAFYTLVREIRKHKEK
Chain of KRAS G12D (P62937 whole entry): as the sequence (P62937 whole entry) above
T1 sequence (P01111 whole entry G12C): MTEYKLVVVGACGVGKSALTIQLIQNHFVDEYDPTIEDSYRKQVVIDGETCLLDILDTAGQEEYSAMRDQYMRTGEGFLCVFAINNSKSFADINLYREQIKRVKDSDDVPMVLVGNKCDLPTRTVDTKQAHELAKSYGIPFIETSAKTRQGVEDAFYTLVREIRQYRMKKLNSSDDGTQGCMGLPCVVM
T1 sequence (P62937 whole entry): as the sequence (P62937 whole entry) above
Chain of KRAS G12S (P01116 1-169 isoform P01116-2 G12S limits assumed): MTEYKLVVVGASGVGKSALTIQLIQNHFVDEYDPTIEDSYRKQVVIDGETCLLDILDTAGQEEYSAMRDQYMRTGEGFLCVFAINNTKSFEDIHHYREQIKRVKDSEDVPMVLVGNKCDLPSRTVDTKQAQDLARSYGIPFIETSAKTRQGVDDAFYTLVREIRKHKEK
Chain of KRAS G12S (P62937 whole entry): as the sequence (P62937 whole entry) above
Chain of KRAS G13C (P01116 1-169 isoform P01116-2 G13C limits assumed): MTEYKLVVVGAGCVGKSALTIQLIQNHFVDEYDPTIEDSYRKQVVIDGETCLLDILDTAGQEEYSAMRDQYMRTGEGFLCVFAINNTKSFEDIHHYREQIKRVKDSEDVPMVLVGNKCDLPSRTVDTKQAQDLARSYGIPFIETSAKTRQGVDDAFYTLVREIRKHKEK
Chain of KRAS G13C (P62937 whole entry): as the sequence (P62937 whole entry) above
Chain of KRAS G12C (P01116 1-169 isoform P01116-2 G12C limits assumed): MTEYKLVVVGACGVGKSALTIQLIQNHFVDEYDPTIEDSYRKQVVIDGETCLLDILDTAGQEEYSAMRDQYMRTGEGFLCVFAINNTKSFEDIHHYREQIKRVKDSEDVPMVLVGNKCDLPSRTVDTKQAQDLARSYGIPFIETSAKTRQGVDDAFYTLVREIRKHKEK
Chain of KRAS G12C (P62937 whole entry): as the sequence (P62937 whole entry) above
Chain of KRAS WT (P01116 1-169 isoform P01116-2 limits assumed): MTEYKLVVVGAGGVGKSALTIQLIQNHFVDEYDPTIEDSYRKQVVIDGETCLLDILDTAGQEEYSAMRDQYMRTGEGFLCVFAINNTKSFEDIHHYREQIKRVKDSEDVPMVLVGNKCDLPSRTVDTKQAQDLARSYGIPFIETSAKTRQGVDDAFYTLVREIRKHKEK
Chain of KRAS WT (P62937 whole entry): as the sequence (P62937 whole entry) above

## CCn1c(-c2cnccc2COC)c2c3cc(ccc31)-c1cc(O)cc(c1)C[C@H](NC(=O)[C@H](C(C)C)N(C)C(=O)CN(C)C(=O)[C@@H]1CN1Cc1ccccc1)C(=O)N1CCC[C@H](N1)C(=O)OCC(C)(C)C2 (stereo partly drawn) [Compound 10]
NRAS G12C; [3]
  pIC50: 7.00 to 8.00
NCI-H358 (K-Ras G12C); [4]
  pIC50: 7.00 to 8.00
KRAS WT
  pIC50: 6.00 to 7.00
KRAS G13D
  pIC50: 5.00 to 6.00
KRAS G12V
  pIC50: 6.00 to 7.00
KRAS G12S
  pIC50: 7.00 to 8.00
KRAS G12D
  pIC50: 5.00 to 6.00
KRAS G12C
  pIC50: 7.00 to 8.00
AsPC-1 (K-Ras G12D) [1]; [5]
  pIC50: 5.00 to 6.00
KRAS G13C
  pIC50: 6.00 to 7.00
AsPC-1 (K-Ras G12D) [2]; [6]
  pEC50: > 5.30

## CCn1c(-c2cnccc2COC)c2c3cc(ccc31)-c1cc(O)cc(c1)C[C@H](NC(=O)[C@H](C(C)C)N(C)C(=O)CN(C)C(=O)C1CN1S(C)(=O)=O)C(=O)N1CCC[C@H](N1)C(=O)OCC(C)(C)C2 (stereo partly drawn) [Compound 13]
NRAS G12C; [7]
  pIC50: 7.00 to 8.00
NCI-H358 (K-Ras G12C); [8]
  pIC50: 7.00 to 8.00
KRAS WT; [9]
  pIC50: 7.00 to 8.00
KRAS G13D; [10]
  pIC50: 6.00 to 7.00
KRAS G12V; [11]
  pIC50: 7.00 to 8.00
KRAS G12S; [12]
  pIC50: 7.00 to 8.00
KRAS G12D; [13]
  pIC50: 6.00 to 7.00
KRAS G12C; [14]
  pIC50: 7.00 to 8.00
AsPC-1 (K-Ras G12D) [1]; [15]
  pIC50: 5.00 to 6.00
KRAS G13C; [16]
  pIC50: 7.00 to 8.00
AsPC-1 (K-Ras G12D) [2]; [6]
  pEC50: > 5.30

## CCn1c(-c2cccnc2[C@H](C)OC)c2c3cc(ccc31)-c1cc(O)cc(c1)C[C@H](NC(=O)[C@H](C(C)C)N1CC[C@@]3(CCCN(C(=O)[C@@H]4CN4)C3)C1=O)C(=O)N1CCC[C@H](N1)C(=O)OCC(C)(C)C2 [Compound 191]
NRAS G12C; [7]
  pIC50: 7.00 to 8.00
NCI-H358 (K-Ras G12C); NCI-H358, K-Ras G12C, 5-day treatment, read-out: H358 Cell Viability IC50
  pIC50: 7.00 to 8.00
KRAS WT; [9]
  pIC50: 7.00 to 8.00
KRAS G13D; [10]
  pIC50: 6.00 to 7.00
KRAS G12V; [11]
  pIC50: 6.00 to 7.00
KRAS G12S; [12]
  pIC50: 7.00 to 8.00
KRAS G12D; [13]
  pIC50: 6.00 to 7.00
KRAS G12C; [14]
  pIC50: 7.00 to 8.00
AsPC-1 (K-Ras G12D) [1]; AsPC-1, K-Ras G12D, 5-day treatment, read-out: AsPC-1 Cell Viability IC50
  pIC50: 5.00 to 6.00
KRAS G13C; [16]
  pIC50: 7.00 to 8.00
AsPC-1 (K-Ras G12D) [2]; ASPC1, AsPC-1 cells, K-Ras G12D, read-out: pERK EC50 (AsPC-1 KRAS G12D)
  pEC50: > 5.30

## CCn1c(-c2cnccc2COC)c2c3cc(ccc31)-c1cc(O)cc(c1)C[C@H](NC(=O)[C@H](C(C)C)N(C)C(=O)CN(C)C(=O)[C@H]1[C@@H](C3CC3)N1[S@+]([O-])C(C)(C)C)C(=O)N1CCC[C@H](N1)C(=O)OCC(C)(C)C2 (stereo partly drawn) [Compound 52]
NRAS G12C; [7]
  pIC50: 7.00 to 8.00
NCI-H358 (K-Ras G12C); [8]
  pIC50: 6.00 to 7.00
KRAS WT; [9]
  pIC50: 7.00 to 8.00
KRAS G13D; [10]
  pIC50: 6.00 to 7.00
KRAS G12V; [11]
  pIC50: 6.00 to 7.00
KRAS G12S; [12]
  pIC50: 7.00 to 8.00
KRAS G12D; [13]
  pIC50: 6.00 to 7.00
KRAS G12C; [14]
  pIC50: 7.00 to 8.00
AsPC-1 (K-Ras G12D) [1]; [15]
  pIC50: 5.00 to 6.00
KRAS G13C; [16]
  pIC50: 6.00 to 7.00
AsPC-1 (K-Ras G12D) [2]; [6]
  pEC50: > 5.30

## CCn1c(-c2cnccc2COC)c2c3cc(ccc31)-c1cc(O)cc(c1)C[C@H](NC(=O)[C@H](C(C)C)N(C)C(=O)CN(C)C(=O)[C@@H]1CN1)C(=O)N1CCC[C@H](N1)C(=O)OCC(C)(C)C2 [Compound 8]
NRAS G12C; [3]
  pIC50: 7.00 to 8.00
NCI-H358 (K-Ras G12C); [4]
  pIC50: 7.00 to 8.00
KRAS WT
  pIC50: 6.00 to 7.00
KRAS G13D
  pIC50: 6.00 to 7.00
KRAS G12V
  pIC50: 6.00 to 7.00
KRAS G12S
  pIC50: 7.00 to 8.00
KRAS G12D
  pIC50: 6.00 to 7.00
KRAS G12C
  pIC50: 7.00 to 8.00
AsPC-1 (K-Ras G12D) [1]; [5]
  pIC50: 5.00 to 6.00
KRAS G13C
  pIC50: 7.00 to 8.00
AsPC-1 (K-Ras G12D) [2]; [6]
  pEC50: > 5.30

## CCn1c(-c2cnccc2COC)c2c3cc(ccc31)-c1cc(O)cc(c1)C[C@H](NC(=O)[C@H](C(C)C)N(C)C(=O)CN(C)C(=O)[C@@H]1[C@H](C(=O)OC)N1[S@@+]([O-])C(C)(C)C)C(=O)N1CCC[C@H](N1)C(=O)OCC(C)(C)C2 (stereo partly drawn) [Compound 50]
NRAS G12C; [7]
  pIC50: 7.00 to 8.00
NCI-H358 (K-Ras G12C); [8]
  pIC50: 6.00 to 7.00
KRAS WT; [9]
  pIC50: 6.00 to 7.00
KRAS G13D; [10]
  pIC50: 6.00 to 7.00
KRAS G12V; [11]
  pIC50: 7.00 to 8.00
KRAS G12S; [12]
  pIC50: 7.00 to 8.00
KRAS G12D; [13]
  pIC50: 6.00 to 7.00
KRAS G12C; [14]
  pIC50: 7.00 to 8.00
AsPC-1 (K-Ras G12D) [1]; [15]
  pIC50: < 5.00
KRAS G13C; [16]
  pIC50: 7.00 to 8.00
AsPC-1 (K-Ras G12D) [2]; [6]
  pEC50: > 5.30
